We go through one compound from patent publication US20260021090A1, “METHODS OF ADM[…]” (Trevi Therapeutics, Inc., priority 2022, published 2026).

Read-outs that look alike come from different tables or passages of the source.

The conditions of data set [1]: IV, cited from earlier work.
For data set [2] the following is noted: injectable formulations (IV or IM or SC); cited from earlier work.
For data set [3] the following is noted: race (Caucasian vs African American) or BMI.
A further data set is described as follows: clinical. As to conditions: human, plasma, po, absolute bioavailability, oral administration.

Broadly, the half-life is the time needed for the level to fall by half in the phase considered. As a reminder, the bioavailability is the share of a dose that reaches the circulation, judged against a reference dose that is usually intravenous. A lower bioavailability goes with little systemic uptake. In the case of `Cl.Oc1ccc2c3c1OC1[C@@H](O)CC[C@@]4(O)[C@@H](C2)N(CC2CCC2)CC[C@]314` (stereo partly drawn) [nalbuphine, 17-(cyclobutylmethyl)-4,5α-epoxymorphinian-3, 6α, 14-triol, hydrochloride], the volume of distribution result in data set [1] (across the age groups) is on record as “comparable across the age groups”. Besides, the “elimination half-life (T½)” value in data set [1] (children between 1.5 and 8.5 yrs) was 0.9 h; in data set [1] (elderly subjects 65-90 yrs), 2.3 h; in data set [1] (young adults 23-32 yr of age) it was 1.96 h. Besides, the half-life in data set [2] is 2 to 3 h. Moreover, the “effect on CL/F due to race or BMI” value in data set [3] was “no observable effect”. Also, the results for the bioavailability in the data set “clinical” (non-elderly subjects) and in the data set “clinical” (subjects aged older than 65 years) were 11% and around 44%, respectively.
